Assay results published in PubChem BioAssay (NCI).
Where “and” joins values, the source holds several entries; their conditions need not be identical. Identical values can stand only once.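 Compound exposure: 48 hours, 5 concentrations, 96-well plates. GI50 marks 50% less growth. TGI marks complete inhibition of growth.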

Legend:
Assay in all cases: inhibition of tumour cell growth, NCI panel, 48 h
SK-MEL-2 melanoma = test system: SK-MEL-2 melanoma
DU-145 prostate = test system: DU-145 prostate
MDA-MB-435 = test system: MDA-MB-435
A549 NSCLC = test system: A549 NSCLC
SN12C renal = test system: SN12C renal
SF-295 CNS = test system: SF-295 CNS
OVCAR-8 ovarian = test system: OVCAR-8 ovarian
M14 melanoma = test system: M14 melanoma
TK-10 renal = test system: TK-10 renal
COLO 205 colon = test system: COLO 205 colon
MOLT-4 leukemia = test system: MOLT-4 leukemia
A498 renal = test system: A498 renal
SNB-19 CNS = test system: SNB-19 CNS
SK-MEL-5 melanoma = test system: SK-MEL-5 melanoma
HCC-2998 colon = test system: HCC-2998 colon
786-0 renal = test system: 786-0 renal
OVCAR-3 ovarian = test system: OVCAR-3 ovarian
UO-31 renal = test system: UO-31 renal
CAKI-1 renal = test system: CAKI-1 renal
BT-549 breast = test system: BT-549 breast
SR leukemia = test system: SR leukemia
RXF 393 renal = test system: RXF 393 renal
MALME-3M melanoma = test system: MALME-3M melanoma
HOP-92 NSCLC = test system: HOP-92 NSCLC
NCI-H522 lung = test system: NCI-H522 lung
OVCAR-5 ovarian = test system: OVCAR-5 ovarian
HCT-116 colon = test system: HCT-116 colon
MCF7 breast = test system: MCF7 breast
OVCAR-4 ovarian = test system: OVCAR-4 ovarian
HCT-15 colon = test system: HCT-15 colon
SK-OV-3 ovarian = test system: SK-OV-3 ovarian
NCI-H226 lung = test system: NCI-H226 lung
SW-620 colon = test system: SW-620 colon
NCI-H460 lung = test system: NCI-H460 lung
CCRF-CEM leukemia = test system: CCRF-CEM leukemia
KM12 colon = test system: KM12 colon
U251 CNS = test system: U251 CNS
K-562 leukemia = test system: K-562 leukemia
NCI/ADR-RES ovarian = test system: NCI/ADR-RES ovarian
MDA-MB-231 breast = test system: MDA-MB-231 breast
SF-268 CNS = test system: SF-268 CNS
HT29 colon = test system: HT29 colon
EKVX NSCLC = test system: EKVX NSCLC
HS 578T breast = test system: HS 578T breast
HL-60(TB) leukemia = test system: HL-60(TB) leukemia
SK-MEL-28 melanoma = test system: SK-MEL-28 melanoma
SF-539 CNS = test system: SF-539 CNS
PC-3 prostate = test system: PC-3 prostate
T-47D breast = test system: T-47D breast
SNB-75 CNS = test system: SNB-75 CNS
UACC-62 melanoma = test system: UACC-62 melanoma
RPMI-8226 leukemia = test system: RPMI-8226 leukemia
ACHN renal = test system: ACHN renal
UACC-257 melanoma = test system: UACC-257 melanoma
LOX IMVI melanoma = test system: LOX IMVI melanoma
NCI-H23 lung = test system: NCI-H23 lung
IGROV1 ovarian = test system: IGROV1 ovarian
HOP-62 NSCLC = test system: HOP-62 NSCLC

O=C(c1ccccc1O)c1[nH]c(Cl)c(Cl)c1-n1c(C(=O)c2ccccc2O)cc(Cl)c1Cl
GI50 (SK-MEL-2 melanoma): 335 nM and 1130 nM | TGI (SK-MEL-2 melanoma): 1410 nM and 5680 nM | GI50 (DU-145 prostate): 2250 nM and 1810 nM | TGI (DU-145 prostate): 16300 nM and 16600 nM | GI50 (MDA-MB-435): 1870 nM and 1510 nM | TGI (MDA-MB-435): 10600 nM and 10400 nM | GI50 (A549 NSCLC): 2690 nM and 1800 nM | TGI (A549 NSCLC): 10900 nM and 14600 nM | GI50 (SN12C renal): 399 nM and 368 nM | TGI (SN12C renal): 11900 nM and 11000 nM | GI50 (SF-295 CNS): 1050 nM and 792 nM | TGI (SF-295 CNS): 4160 nM and 3380 nM | GI50 (OVCAR-8 ovarian): 643 nM and 558 nM | TGI (OVCAR-8 ovarian): 10900 nM and 15800 nM | GI50 (M14 melanoma): 1460 nM and 1440 nM | TGI (M14 melanoma): 5900 nM and 7760 nM | GI50 (TK-10 renal): 656 nM and 616 nM | TGI (TK-10 renal): 10900 nM and 12400 nM | GI50 (COLO 205 colon): 703 nM and 757 nM | TGI (COLO 205 colon): 2470 nM and 3170 nM | GI50 (MOLT-4 leukemia): 1700 nM and 798 nM | TGI (MOLT-4 leukemia): 14400 nM and 5740 nM | GI50 (A498 renal): 231 nM and 332 nM | TGI (A498 renal): 2040 nM and 2750 nM | GI50 (SNB-19 CNS): 1490 nM and 917 nM | TGI (SNB-19 CNS): 15400 nM and 15600 nM | GI50 (SK-MEL-5 melanoma): 314 nM and 220 nM | TGI (SK-MEL-5 melanoma): 1380 nM and 589 nM | GI50 (HCC-2998 colon): 994 nM and 931 nM | TGI (HCC-2998 colon): 12700 nM and 11600 nM | GI50 (786-0 renal): 2110 nM and 1730 nM | TGI (786-0 renal): 11200 nM and 7990 nM | GI50 (OVCAR-3 ovarian): 1030 nM and 704 nM | TGI (OVCAR-3 ovarian): 13100 nM and 13400 nM | GI50 (UO-31 renal): 2600 nM and 2020 nM | TGI (UO-31 renal): 11400 nM and 6950 nM | GI50 (CAKI-1 renal): 425 nM and 385 nM | TGI (CAKI-1 renal): 10600 nM and 3100 nM | GI50 (BT-549 breast): 1220 nM and 675 nM | TGI (BT-549 breast): 6740 nM and 4960 nM | GI50 (SR leukemia): 2760 nM and 446 nM | TGI (SR leukemia): 15200 nM and 15100 nM | GI50 (RXF 393 renal): 1090 nM and 754 nM | TGI (RXF 393 renal): 9120 nM and 6720 nM | GI50 (MALME-3M melanoma): 1370 nM | TGI (MALME-3M melanoma): 5180 nM | GI50 (HOP-92 NSCLC): 224 nM and 155 nM | TGI (HOP-92 NSCLC): 940 nM and 587 nM | GI50 (NCI-H522 lung): 317 nM and 363 nM | TGI (NCI-H522 lung): 1400 nM and 7680 nM | GI50 (OVCAR-5 ovarian): 2540 nM and 2730 nM | TGI (OVCAR-5 ovarian): 9870 nM and 14600 nM | GI50 (HCT-116 colon): 336 nM and 344 nM | TGI (HCT-116 colon): 4760 nM and 10400 nM | GI50 (MCF7 breast): 407 nM and 258 nM | TGI (MCF7 breast): 10600 nM and 10300 nM | GI50 (OVCAR-4 ovarian): 2410 nM and 1860 nM | TGI (OVCAR-4 ovarian): 19400 nM and 10700 nM | GI50 (HCT-15 colon): 316 nM and 298 nM | TGI (HCT-15 colon): 12100 nM and 11100 nM | GI50 (SK-OV-3 ovarian): 1860 nM and 2310 nM | TGI (SK-OV-3 ovarian): 7110 nM and 13100 nM | GI50 (NCI-H226 lung): 1630 nM and 706 nM | TGI (NCI-H226 lung): 14900 nM and 5970 nM | GI50 (SW-620 colon): 869 nM and 716 nM | TGI (SW-620 colon): 13200 nM and 12700 nM | GI50 (NCI-H460 lung): 456 nM and 427 nM | TGI (NCI-H460 lung): 11200 nM and 10200 nM | GI50 (CCRF-CEM leukemia): 467 nM and 382 nM | TGI (CCRF-CEM leukemia): 16900 nM and 12200 nM | GI50 (KM12 colon): 1920 nM and 750 nM | TGI (KM12 colon): 12100 nM and 11900 nM | GI50 (U251 CNS): 1290 nM and 1420 nM | TGI (U251 CNS): 12300 nM and 13600 nM | GI50 (K-562 leukemia): 409 nM | TGI (K-562 leukemia): 16800 nM | GI50 (NCI/ADR-RES ovarian): 669 nM and 456 nM | TGI (NCI/ADR-RES ovarian): 12900 nM and 11200 nM | GI50 (MDA-MB-231 breast): 1070 nM and 354 nM | TGI (MDA-MB-231 breast): 5870 nM and 2610 nM | GI50 (SF-268 CNS): 677 nM and 546 nM | TGI (SF-268 CNS): 13400 nM and 14600 nM | GI50 (HT29 colon): 2000 nM | TGI (HT29 colon): 12800 nM | GI50 (EKVX NSCLC): 549 nM | TGI (EKVX NSCLC): 10000 nM | GI50 (HS 578T breast): 849 nM and 623 nM | TGI (HS 578T breast): 10900 nM and 9660 nM | GI50 (HL-60(TB) leukemia): 1190 nM and 432 nM | TGI (HL-60(TB) leukemia): 5480 nM and 3580 nM | GI50 (SK-MEL-28 melanoma): 844 nM and 529 nM | TGI (SK-MEL-28 melanoma): 12300 nM and 11300 nM | GI50 (SF-539 CNS): 1670 nM and 1740 nM | TGI (SF-539 CNS): 10100 nM and 10900 nM | GI50 (PC-3 prostate): 411 nM and 276 nM | TGI (PC-3 prostate): 9210 nM and 2370 nM | GI50 (T-47D breast): 360 nM and 460 nM | TGI (T-47D breast): 3340 nM and 11200 nM | GI50 (SNB-75 CNS): 1800 nM and 1580 nM | TGI (SNB-75 CNS): 10300 nM and 8760 nM | GI50 (UACC-62 melanoma): 495 nM and 361 nM | TGI (UACC-62 melanoma): 3340 nM and 2090 nM | GI50 (RPMI-8226 leukemia): 366 nM and 265 nM | TGI (RPMI-8226 leukemia): 4210 nM and 1570 nM | GI50 (ACHN renal): 1540 nM and 591 nM | TGI (ACHN renal): 9410 nM and 9110 nM | GI50 (UACC-257 melanoma): 1580 nM and 1990 nM | TGI (UACC-257 melanoma): 5880 nM and 9950 nM | GI50 (LOX IMVI melanoma): 2720 nM and 2480 nM | TGI (LOX IMVI melanoma): 10600 nM and 10700 nM | GI50 (NCI-H23 lung): 418 nM and 409 nM | TGI (NCI-H23 lung): 6800 nM and 11700 nM | GI50 (IGROV1 ovarian): 1540 nM and 1450 nM | TGI (IGROV1 ovarian): 20500 nM and 15100 nM | GI50 (HOP-62 NSCLC): 2140 nM and 3490 nM | TGI (HOP-62 NSCLC): 6490 nM and 17200 nM
